# Laboratory results reported in ChEMBL document CHEMBL5030539, “Potent and Selective Inhibitors of the Epidermal Growth Factor Receptor to Overcome C797S-Mediated Resistance” (J Med Chem, 2021).
# Calls of active or inactive are those of the source. The calls are words filed in the database; no cut-off is given here.
# Key:
# [1] = Inhibition of EGFR Ex19del/T790M/C797S triple mutant (unknown origin) incubated for 15 min measured by -CisBio HTRF KinEASE TK; set-up: species or system Homo sapiens
# Homo sapiens = species on record: Homo sapiens; assay: Inhibition of EGFR Ex19del/T790M/C797S triple mutant (unknown origin) assessed as enzyme residence time measured by -biacore direct binding assay
# [2] = Inhibition of EGFR Ex19del/T790M/C797S triple mutant (unknown origin) expressed in human NCI-H1975 cells assessed as protein phosphorylation measured after 2 hrs by ELISA; type: cell-based; settings: NCI-H1975, 2 h
# [3] = Inhibition of wild type EFGR expressed in human LoVo cell line assessed as inhibition of EGF-stimulated EGFR phosphorylation potency measured after 2 hrs by HRTF assay; type: functional
# [4] = Aqueous solubility of the compound at pH 7.4; type: physicochemical; settings: buffer
# [5] = Plasma protein binding in human plasma assessed as unbound fraction; type: ADME, cell-free
# [6] = Lipophilicity, log D of the compound at pH 7.4; type: physicochemical; settings: buffer
# [7] = Intrinsic clearance in human liver microsomes; type: ADME, Microsome; settings: read-out: CLH
# [8] = molecular target: Epidermal growth factor receptor (Homo sapiens, UniProt P00533); assay: Inhibition of Wild type EGFR (unknown origin)
# Epidermal growth factor receptor (Homo sapiens, UniProt P00533), sequence (P00533 whole entry): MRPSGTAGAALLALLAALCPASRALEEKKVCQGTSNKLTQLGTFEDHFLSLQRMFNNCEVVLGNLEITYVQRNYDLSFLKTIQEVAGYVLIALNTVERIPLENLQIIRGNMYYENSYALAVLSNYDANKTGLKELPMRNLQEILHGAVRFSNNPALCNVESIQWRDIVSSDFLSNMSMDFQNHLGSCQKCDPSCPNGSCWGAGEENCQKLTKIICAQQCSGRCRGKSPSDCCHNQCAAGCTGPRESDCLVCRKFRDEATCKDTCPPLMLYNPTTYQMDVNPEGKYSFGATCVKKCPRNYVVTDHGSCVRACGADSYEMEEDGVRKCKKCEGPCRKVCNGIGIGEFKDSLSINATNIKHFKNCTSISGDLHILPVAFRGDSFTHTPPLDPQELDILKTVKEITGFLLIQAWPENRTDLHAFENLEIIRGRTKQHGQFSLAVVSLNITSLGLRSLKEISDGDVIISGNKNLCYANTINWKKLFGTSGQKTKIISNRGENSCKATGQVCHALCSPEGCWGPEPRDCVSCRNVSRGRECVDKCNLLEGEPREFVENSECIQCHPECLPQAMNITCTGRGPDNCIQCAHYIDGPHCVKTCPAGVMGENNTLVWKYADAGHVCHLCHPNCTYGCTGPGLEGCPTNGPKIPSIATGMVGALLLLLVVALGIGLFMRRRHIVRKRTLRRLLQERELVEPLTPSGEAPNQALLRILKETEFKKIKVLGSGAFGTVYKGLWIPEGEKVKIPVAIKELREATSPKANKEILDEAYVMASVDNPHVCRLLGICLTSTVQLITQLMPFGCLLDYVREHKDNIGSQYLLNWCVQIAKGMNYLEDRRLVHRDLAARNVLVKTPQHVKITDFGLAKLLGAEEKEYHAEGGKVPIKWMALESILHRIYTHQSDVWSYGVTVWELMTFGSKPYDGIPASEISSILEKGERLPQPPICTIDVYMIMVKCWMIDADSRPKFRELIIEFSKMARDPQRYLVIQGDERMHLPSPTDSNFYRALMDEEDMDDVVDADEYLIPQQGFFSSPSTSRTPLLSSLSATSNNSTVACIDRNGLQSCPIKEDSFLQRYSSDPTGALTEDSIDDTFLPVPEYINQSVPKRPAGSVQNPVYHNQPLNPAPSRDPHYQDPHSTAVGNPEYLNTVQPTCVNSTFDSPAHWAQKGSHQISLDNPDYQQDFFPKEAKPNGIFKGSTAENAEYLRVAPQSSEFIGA
# [9] = Intrinsic permeability of compound across apical to basolateral side in human Caco-2 cells; type: ADME, cell-based; settings: read-out: permeability
# [10] = Intrinsic clearance in rat hepatocyte measured per 10^6 cells; type: ADME, tissue-based; settings: hepatocytes
# NCI-H1975 = assay: Antitumour activity against human NCI-H1975 cells harboring EGFR L858R/T790M double mutant xenografted in NSG mouse model assessed as tumour growth inhibition at 50 mg/kg, sc bid for 14 days relative to control; type: functional; settings: 336 h, time 14 day, read-out: TGI
# [11] = Toxicity in mouse NSG assessed as change in body weight at 50 mg/kg, sc bid for 14 to 21 days; type: organism-based; settings: in vivo, time 14-21 day
# [12] = Inhibition of EFGR Ex19del (unknown origin) expressed in human PC-9 cells assessed as inhibition of EGF-induced phosphorylation measured after 2 hrs by ELISA; type: cell-based; settings: PC-9, 2 h
# [13] = Inhibition of EFGR Ex19del/T790M/C797S triple mutant (unknown origin) expressed in human PC-9-VanR cells assessed as inhibition of EGF-induced phosphorylation measured after 2 hrs by ELISA; type: cell-based; settings: PC-9, 2 h
# PC-9 [14] = assay: Antitumour activity against human PC-9-VanR cells harboring EGFR Ex19del/T790M/C797S triple mutant xenografted in NSG mouse model assessed as tumour growth inhibition at 50 mg/kg, sc bid for 21 days; type: functional; settings: PC-9, sc, 504 h, time 21 day, read-out: TGI
# PC-9 [15] = assay: In vivo inhibition of EGFR in human PC-9-VanR cells harboring EGFR Ex19del/T790M/C797S triple mutant xenografted in NSG mouse model assessed as inhibition of EGFR phosphorylation in tumor at 50 mg/kg, sc bid for 21 days by immunoblot analysis; type: functional, organism-based; settings: time 21.0 day
# PC-9 [16] = assay: In vivo inhibition of EGFR in human PC-9-VanR cells harboring EGFR Ex19del/T790M/C797S triple mutant xenografted in NSG mouse model assessed as inhibition of ERK phosphorylation in tumor at 50 mg/kg, sc bid for 21 days by immunoblot analysis; type: functional, organism-based; settings: time 21.0 day
# PC-9 [17] = assay: In vivo inhibition of EGFR in human PC-9-VanR cells harboring EGFR Ex19del/T790M/C797S triple mutant xenografted in NSG mouse model assessed as inhibition of Akt phosphorylation in tumor at 50 mg/kg, sc bid for 21 days by immunoblot analysis; type: functional, organism-based; settings: time 21.0 day
# PC-9 [18] = assay: In vivo inhibition of EGFR in human PC-9-VanR cells harboring EGFR Ex19del/T790M/C797S triple mutant xenografted in NSG mouse model assessed as inhibition of S6 phosphorylation in tumor at 50 mg/kg, sc bid for 21 days by immunoblot analysis; type: functional, organism-based; settings: time 21.0 day
# [19] = molecular target: Epidermal growth factor receptor (Homo sapiens, UniProt P00533, L858R/T790M)
# Epidermal growth factor receptor (Homo sapiens, UniProt P00533, L858R/T790M), sequence (P00533 25-1210 T790M/L858R limits assumed): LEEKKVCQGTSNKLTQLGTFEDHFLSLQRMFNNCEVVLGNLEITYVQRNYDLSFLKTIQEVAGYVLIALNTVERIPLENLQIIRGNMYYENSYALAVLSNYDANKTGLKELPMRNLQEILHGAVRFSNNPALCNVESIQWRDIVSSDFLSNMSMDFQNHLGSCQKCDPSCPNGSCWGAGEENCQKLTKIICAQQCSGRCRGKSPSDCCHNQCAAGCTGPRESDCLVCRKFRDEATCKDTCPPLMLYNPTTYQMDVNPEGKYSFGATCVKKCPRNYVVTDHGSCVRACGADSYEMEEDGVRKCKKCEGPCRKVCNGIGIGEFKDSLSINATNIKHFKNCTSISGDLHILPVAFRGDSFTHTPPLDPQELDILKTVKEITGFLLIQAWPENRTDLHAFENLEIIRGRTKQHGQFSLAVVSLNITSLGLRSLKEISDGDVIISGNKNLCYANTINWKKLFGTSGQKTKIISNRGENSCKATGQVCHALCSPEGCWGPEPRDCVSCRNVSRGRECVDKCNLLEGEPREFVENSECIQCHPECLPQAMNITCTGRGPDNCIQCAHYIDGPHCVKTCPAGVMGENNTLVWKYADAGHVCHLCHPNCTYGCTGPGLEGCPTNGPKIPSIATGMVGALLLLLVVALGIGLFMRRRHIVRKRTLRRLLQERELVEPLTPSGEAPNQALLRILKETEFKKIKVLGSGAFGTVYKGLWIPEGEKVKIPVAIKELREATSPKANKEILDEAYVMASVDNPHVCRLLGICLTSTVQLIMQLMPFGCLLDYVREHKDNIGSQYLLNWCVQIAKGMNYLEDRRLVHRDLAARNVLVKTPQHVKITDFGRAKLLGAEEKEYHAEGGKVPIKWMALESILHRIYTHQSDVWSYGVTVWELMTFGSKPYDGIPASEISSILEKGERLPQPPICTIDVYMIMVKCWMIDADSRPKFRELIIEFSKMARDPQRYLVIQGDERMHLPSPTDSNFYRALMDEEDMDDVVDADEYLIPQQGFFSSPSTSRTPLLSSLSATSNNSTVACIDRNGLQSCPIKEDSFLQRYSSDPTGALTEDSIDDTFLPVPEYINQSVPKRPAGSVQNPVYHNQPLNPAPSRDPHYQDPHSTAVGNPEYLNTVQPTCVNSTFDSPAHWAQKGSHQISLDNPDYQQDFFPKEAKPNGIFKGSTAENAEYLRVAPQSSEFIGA
# [20] = Dissociation constant, pKa of compound; type: physicochemical
# [21] = Inhibition of EGFR Exon19Del/C797S double mutant (unknown origin) by biochemical assay; set-up: species or system Homo sapiens
IC50 [1] [nM],TIME (Homo sapiens) [h],IC50 [2] [nM],IC50 [3] [nM],solubility [4] [µM],fraction unbound ([5]; read-out: Fu),logD [6],microsomal CLint [7] [µL/min/mg],IC50 [8] [nM],Papp A→B at 10 µM [9] [×10⁻⁶ cm/s],CLH [10] [uL/min/10^6 cells],SMILES,also measured
0.3,2.2,498,726,> 1000,0.1,2.5,28,–,–,–,COc1cc(N2CCC(N3CCN(C)CC3)CC2)c(-c2cn[nH]c2)cc1Nc1ncc(Cl)c(Nc2ccccc2P(C)(C)=O)n1,–
0.2,1.83,139,–,–,0.041,4,71,2.4,78,67,CCP(=O)(CC)c1ccccc1Nc1nc(Nc2cc(-c3cnn(C)c3)c(N3CCOCC3)cc2OC)ncc1Cl,–
0.2,1.37,122,1180,8.7,0.07,3,49,4.4,61,16,COc1cc(N2CCOCC2)c(-c2cnn(C)c2)cc1Nc1ncc(Cl)c(Nc2ccccc2P(C)(C)=O)n1,inhibition in vivo at 50 mg/kg (NCI-H1975): 87%; Activity [11]: Toxic; IC50 [12]: 52 nM; IC50 [13]: 739 nM; inhibition in vivo at 50 mg/kg (PC-9 [14]): 52%; Activity (PC-9 [15]): Active; Activity (PC-9 [16]): Active; Activity (PC-9 [17]): Active; Activity (PC-9 [18]): Active; IC50 [19]: 32 nM
0.19,1.08,–,101,> 1000,0.272,1.9,31,1.7,< 0.24,< 1,COc1cc(N2CCC(N(C)C)CC2)c(-c2cnn(C)c2)cc1Nc1ncc(Cl)c(Nc2ccccc2P(C)(C)=O)n1,pKa [20]: 9.4
–,3.97,1090,2140,< 3,0.009,3.4,28,–,18,–,COc1cc(N2CCOCC2)c(-c2cn[nH]c2)cc1Nc1ncc(Cl)c(Nc2ccccc2P(C)(C)=O)n1,–
0.23,2.65,241,79,> 1000,0.243,2.4,24,3.3,2.6,< 1,COc1cc(N2CCN(C)CC2)c(-c2cnn(C)c2)cc1Nc1ncc(Cl)c(Nc2ccccc2P(C)(C)=O)n1,pKa [20]: 7.6
0.5,2.3,2010,373,> 1000,0.19,1.8,23,0.9,0.24,< 1,COc1cc(N2CCC(N(C)C)CC2)c(-c2cn[nH]c2)cc1Nc1ncc(Cl)c(Nc2ccccc2P(C)(C)=O)n1,–
0.32,2.52,91,140,> 1000,0.228,2.7,21,0.92,< 0.62,< 1,COc1cc(N2CCC(N3CCN(C)CC3)CC2)c(-c2cnn(C)c2)cc1Nc1ncc(Cl)c(Nc2ccccc2P(C)(C)=O)n1,–
7,0.333,459,2030,> 1190,–,2.3,3.1,–,4.7,–,COc1cc(N2CCC(N3CCN(C)CC3)CC2)ccc1Nc1ncc(Cl)c(Nc2ccccc2P(C)(C)=O)n1 [BRIGATINIB],fraction unbound [5]: 0.155; IC50 [21]: 132 nM; IC50 [12]: 357 nM; IC50 [13]: 2680 nM
–,–,–,–,–,–,–,–,–,–,–,C=CC(=O)Nc1cc(Nc2nccc(-c3cn(C)c4ccccc34)n2)c(OC)cc1N(C)CCN(C)C [OSIMERTINIB],IC50 [21]: 44 nM
